Consider one compound from patent EP4652998A1, “TREATMENT OF RECEPTOR-INTERACTING PROTEIN KINASE 1- MEDIATED DISEASE WITH ECLITASERTIB” (Technische Universität München, priority 2024, dated 2025).

Common to all, as to type: cell-based
The test system of series [1] is lesional skin of LP patients. Description: Human lesional skin biopsy cultures ex vivo, gene expression by qPCR. Particulars: 1 µM inhibitor, 4 h, LP skin biopsies (n=5), compared to autologous non-treated controls. The protocol: 6 mm punch biopsies of lesional skin of LP patients (n=5) were obtained under local anaesthesia. Biopsies were divided into two parts and treated with the RIPK1 inhibitor (1 µM, SANOFI) or without as untreated control sample for 4 h in T cell media (RPMI 1640 medium with 1 % human serum, 0.1 mM non-essential aminoacids, 2 mM L-Glutamine, 1 mM sodium pyruvate and 100 U/mL penicillin/streptomycin). After stimulation, biopsies were stored in RNALater® solution at -80 °C until RNA preparation. RNA was isolated using QIAzol Lysis Reagent (Qiagen) and miRNeasy Mini Kit (Qiagen) according to manufacturer's protocol. mRNA was transcribed into cDNA with Applied Biosytems High Capacity cDNA Reverse Transcription Kit (Thermo Fisher Scientific). Gene expression was measured on an Applied Biosystems ViiA7 Real-Time PCR system (Thermo Fisher Scientific) using Fast Start Universal SYBRGreen Master Rox (Roche). Primers were ordered from Metabion (http://www.metabion.com) and are listed in supplementary Table S5. Data are shown as relative gene expression to untreated sample using 2^-(ΔΔcT) method. Table S5. Primer sequences. Fw = forward. rv = reverse.

Series [2] concerns primary human keratinocytes. The series can be described thus: Cell viability assay (MTS/PMS) after cell death induction with IFN-γ + TNF-α + zVAD + SMAC. Particulars: 4 nM RIPK1 inhibitor (or higher), zVAD [20 µM] and SMAC [1 µM], 24 h, normalized to zVAD + SMAC (100 %), stimulated control 43,6 % ± 7.6 %, n=4. The protocol:
Primary human keratinocytes were obtained from healthy donors by suction blister as reported before (J Allergy Clin Immunol 141, 1320-1333 e1311 (2018)) and donor characteristics are listed in Table S3. Epidermal keratinocytes were cultured in keratinocyte medium (DermaLife Basal Medium supplemented with DermaLife K LifeFactor Kit (Lifeline Cell Technology, LL-0007)) at 37 °C, 5 % CO2 and second- to third-passages were used. At 70-80 % of confluence, keratinocytes were pre-incubated for 1 h with RIPK1 inhibitor (100 nM or as indicated, SANOFI) followed by stimulation with rhIFN-γ (100 ng/ml or as indicated, R&D, #285-IF-100/CF) and rhTNF-α (100 ng/ml or as indicated, R&D, #210_TA/CF) in the presence of zVAD (20 µM, Cell Signaling, #60332), SMAC (1 µM, LC Laboratories, #B-9135) and the RIPK1 inhibitor for 24 h in keratinocyte medium without hydrocortisone.
Cell viability of cultured keratinocytes was determined using CellTiter 96® Aqueous NonRadioactive Cell Proliferation Assay (Promega, G5421) according to manufacturer's instructions. MTS/PMS reagent was used 1:6 diluted in keratinocyte medium without hydrocortisone and incubated for 1 h. Afterwards, supernatants were analysed by ELISA at 490 nm minus 700 nm as reference. To calculate the percentage of cell viability to ZS extinction values were normalized to the control stimulation zVAD + SMAC (100 %).

The target in series [3] is T1, RIPK1 (Homo sapiens, UniProt Q13546).
T1 construct: Detection of RIPK1-pS 166 in WB analysis of primary human keratinocytes; endogenous in cells; host or cells: primary human keratinocytes from healthy donors (suction blister)
T1 sequence (Q13546 1-671): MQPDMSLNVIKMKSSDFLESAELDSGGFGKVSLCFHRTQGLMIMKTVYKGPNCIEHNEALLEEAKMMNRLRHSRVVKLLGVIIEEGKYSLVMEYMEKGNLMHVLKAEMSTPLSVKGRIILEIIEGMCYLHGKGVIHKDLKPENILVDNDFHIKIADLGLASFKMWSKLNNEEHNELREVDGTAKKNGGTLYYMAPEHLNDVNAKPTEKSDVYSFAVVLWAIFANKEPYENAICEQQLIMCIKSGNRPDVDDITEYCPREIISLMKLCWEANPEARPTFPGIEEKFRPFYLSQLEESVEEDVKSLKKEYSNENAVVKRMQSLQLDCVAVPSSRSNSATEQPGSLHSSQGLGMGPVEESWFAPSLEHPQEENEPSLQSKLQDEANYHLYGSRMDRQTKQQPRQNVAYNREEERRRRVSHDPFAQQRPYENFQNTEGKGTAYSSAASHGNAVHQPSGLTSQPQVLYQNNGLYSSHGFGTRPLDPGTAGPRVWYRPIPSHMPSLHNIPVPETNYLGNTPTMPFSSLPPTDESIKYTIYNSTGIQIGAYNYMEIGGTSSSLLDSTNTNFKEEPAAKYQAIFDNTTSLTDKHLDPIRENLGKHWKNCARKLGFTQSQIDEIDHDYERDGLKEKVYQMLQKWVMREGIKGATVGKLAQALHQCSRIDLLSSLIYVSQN
Description: Western blot of RIPK1-pS166 autophosphorylation in keratinocytes. As to conditions: RIPK1-pS166, 100 nM inhibitor, 6 h after IFN-γ [10 ng/ml] + TNF-α [10 ng/ml] + zVAD [20 µM]. The protocol: Keratinocytes were lysed in RIPA lysis buffer (Santa Cruz) supplemented with 1 mM sodium orthovanadate, 2mM PMSF and proteinase inhibitor cocktail (1:70) according to the manufacturer's instructions.

For the compound `CN1C(=O)[C@@H](NC(=O)c2nnc(Cc3ccccc3)[nH]2)COc2cccnc21` [SAR443122, 5-Benzyl-N-[(3S)-5-methyl-4-oxo-2,3-dihydropyrido[3,2-b][1,4]oxazepin-3-yl]-4H-1,2,4-triazole-3-carboxamide], in series [1], the “downregulation of CCL3” value came out at 62%, the “downregulation of CXCL9” value stood at 57%, the “downregulation of CXCL10” value worked out at 40% and the “downregulation of CXCL11” value is on record as 43%. Moreover, in series [1], the “downregulation of IFNg” value is listed as 60%, the “downregulation of IL1RA” value was determined as 65% and the “downregulation of TNF” value amounted to 60%. Besides, the viability in series [2] is on record as 95.1 % ± 0.8. Besides, the RIPK1 autophosphorylation result in series [3] is reported as “efficiently blocked”.
